Source: patent US20260250318A1, “COMPOSITIONS AND METHODS FOR CROSSING THE BLOOD BRAIN BARRIER” (VOYAGER THERAPEUTICS, INC., priority 2022, published 2026)

What was measured:
Settings in all cases: synthetic library passage 3, intravenous, relative to wild-type AAV9
brain [1] = assay: NGS fold enrichment of synthetic library (passage 3) in BALB/c mice, first cross-species screen; type: in vivo
Procedure, shortened: (§1)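 Fold enrichment versus wild-type AAV9 was derived by NGS of RT-PCR-amplified RNA from nervous tissue, collected e.g. 28 days after IV dosing […]. The library (passage 3) was given to two NHPs aged 2-4 years and to 6-8-week BALB/c and C57Bl/6 mice (n=3 each).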

[2] = tested on: brain, spinal cord, and DRG of the NHPs; assay: NGS fold enrichment of synthetic library (passage 3) in NHPs, first cross-species screen; type: in vivo, cynomolgus macaques (Macaca fascicularis)
Procedure, shortened: as §1

brain [3] = assay: NGS fold enrichment of synthetic library (passage 3) in C57Bl/6 mice, first cross-species screen; type: in vivo
Procedure, shortened: as §1

[4] = RNA from brain of BALB/c mice, NGS
[5] = RNA from spinal cord of NHPs, NGS
[6] = RNA from brain of C57Bl/6 mice, NGS

Sequence | Fold enrichment over AAV9 in the brain of Mice (BALB/c) (brain [1]; RNA NGS, brain of BALB/c mice) | Fold enrichment over AAV9 in the brain of NHPs ([2]; RNA NGS, brain of NHPs) | Fold enrichment over AAV9 in the spinal cord of NHPs ([2]; RNA NGS, spinal cord of NHPs) | Fold enrichment over AAV9 in the brain of Mice (C57Bl/6) (brain [3]; RNA NGS, brain of C57Bl/6 mice) | Fold enrichment over AAV9 in the brain of Mice (BALB/c) (brain [1]; [4]) | Fold enrichment over AAV9 in the brain of NHPs ([2]; RNA from brain of NHPs, NGS) | Fold enrichment over AAV9 in the spinal cord of NHPs [2, 5] | Fold enrichment over AAV9 in the brain of Mice (C57Bl/6) (brain [3]; [6])
GSGQNQQVIPNSKT | 0.376 fold | 1.548 fold | 1.036 fold | 0.844 fold | – | – | – | –
GSGQNQQSKQQVLT | 1.256 fold | 1.019 fold | 1.494 fold | 1.428 fold | – | – | – | –
GSGHSPLPQQNQQT | 0.247 fold | 1.562 fold | 0.556 fold | 0.387 fold | – | – | – | –
GSGQNQQKSLNGNT | – | – | – | – | 0.851 fold | 1.275 fold | 8.573 fold | 0.586 fold
GSGQNQQMPGLSST | – | – | – | – | 0.181 fold | 1.204 fold | 1.887 fold | 0.234 fold
GSGQNQSQNHLQQT | 0.772 fold | 1.825 fold | 0.600 fold | 1.063 fold | – | – | – | –
GVAGSLVSGQNQQT | 1.160 fold | 2.358 fold | 7.670 fold | 1.321 fold | – | – | – | –
GSGQNQQINHRSPT | – | – | – | – | 0.220 fold | 1.173 fold | 0.748 fold | 0.259 fold
GSGQNQHSVQVRQT | 0.916 fold | 1.116 fold | 1.909 fold | 0.782 fold | – | – | – | –
GSGQNQQTGMSSVK | 0.679 fold | 2.109 fold | 4.544 fold | 1.451 fold | – | – | – | –
GSGQLRSLSTNQQT | 0.382 fold | 1.622 fold | 6.855 fold | 1.310 fold | – | – | – | –
GMRTYHLSGQNQQT | 1.586 fold | 9.241 fold | 1.939 fold | 2.033 fold | – | – | – | –
GPTNGRSSGQNQQT | 1.308 fold | 2.034 fold | 8.903 fold | 0.936 fold | – | – | – | –
GSGQYANHGINQQT | 0.701 fold | 1.820 fold | 5.717 fold | 0.906 fold | – | – | – | –
GSGQNQQTTSSNMT | 0.698 fold | 1.099 fold | 0.569 fold | 0.638 fold | – | – | – | –
GSEQTRQRGQNQQT | – | – | – | – | 0.815 fold | 1.333 fold | 2.172 fold | 0.574 fold
GSGQNQANWVKVQT | 0.532 fold | 1.059 fold | 0.126 fold | 0.683 fold | – | – | – | –
GSGQHAAPGHNQQT | – | – | – | – | 0.199 fold | 1.195 fold | 5.999 fold | 0.600 fold
GSSQNQQHDMRLRT | – | – | – | – | 0.552 fold | 1.386 fold | 2.645 fold | 0.669 fold
GSSVRYEPKQNQQT | 0.501 fold | 1.063 fold | 1.564 fold | 0.450 fold | – | – | – | –
